{"source": "patent US10871495B2", "about": "“Biomarkers of polycystic kidney disease and uses thereof” (Genzyme Corporation, priority 2014, dated 2020)", "key": {"jck mice [1]": {"test_system": "jck mice", "assay": "Immunoblot of marker levels in kidney lysate of jck mice treated with GCS inhibitor", "type": "in vivo, mouse", "details": "jck mice treated continuously for 5 weeks (0.225% in diet), vs control mice, FIG. 3", "experimental": "(§1) C57BL/6J jck/+ mice were maintained for crossing. The cystic jck/jck mice were genotyped as previously described (Smith et al., J. Am. Soc. Nephrol. 17:2821-2831, 2006). Pcy mice were maintained on a CD1 genetic background as previously described (Takahashi et al., J. Am. Soc. Nephrol. 1:980-989, 1991). GCS inhibitor C9 was administered ad libitum to jck and pcy mice by mixing in powdered 5053 diet at 0.225% from 26 to 64 days and 4 to 30 weeks of age, respectively (as described in Natoli et al., Nature Medicine 16:788-792, 2010). Urine samples from the mice were collected in metabolic cages over a 24-hour period and stored at −80° C.\n(§2) Kidney samples were homogenized on ice in radioimmunoprecipitation assay (RIPA) buffer (Boston BioProducts, Ashland, Mass.) containing 1 mM dithiothreitol, 5 mM ethylenediaminetetraacetic acid (EDTA), 2 mM NaF, 1 mM Na3VO4 (all supplied by Sigma-Aldrich, St. Louis, Mo.), Pefabloc SC and Complete protease inhibitor cocktail (both from Roche, Basel, Switzerland). Protein concentration was determined by BCA protein assay (Pierce, Rockford, Ill.). The samples were loaded onto 4-12% NuPage Bis-Tris gels following the manufacturer's protocols (Invitrogen, Grand Island, N.Y.). Electrophoretic transfer of the proteins in the gel onto nitrocellulose was performed in a semi-dry apparatus according to the manufacturer's instructions (Invitrogen). After electrophoretic transfer, the resulting membranes were blocked with 5% non-fat milk in tris-buffered saline (TBS) containing 0.1% Tween-20 and incubated with primary antibodies overnight at 4° C. The primary antibodies were detected with horseradish peroxidase-labeled secondary antibodies at a 1:10,000 dilution (Promega, Fitchburg, Wis.). […] The primary antibodies to the following antigenes were used: PCNA (DAKO, Carpinteria, Calif.), cyclin D1, S6, phospho-S6 (Ser235/236), phospho-AKT (ser473), total ERK, phospho-ERK (Thr202/Tyr204) (Cell Signaling Technology, Danvers, Mass.), cyclin D3, total AKT, caspase-2, RBBP (BD Biosciences, Billerica, Mass.), MEK1 (Upstate Biotechnology, Lake Placid, N.Y.), aquaporin-2 (Millipore, Billerica, Mass.) β-actin, TSG101 (Abcam, Cambridge, Mass.), ALIX (Santa Cruz Biotechnology, Dallas, Tex.), and GAPDH (US Biological, Salem, Mass.).\n(§3) A further set of experiments was performed to determine whether the same markers could be used to determine the efficacy of a treatment for PKD in a patient having PKD. In these experiments, urine samples from jck mice that were treated with GCS inhibitor C9 continuously for 5 weeks were gathered (FIG. 2) and the levels of each biomarker were analyzed in urine exosomes and kidney lysate samples. […] The data in FIG. 3 show, e.g., that the levels of PCNA, cyclin D3, RBBP, MEK, Erk, phosphorylated ERK, Akt, phosphorylated Akt, S6, phosphorylated S6, and caspase-2 are decreased in kidney lysate samples from jck mice treated with a GCS inhibitor as compared to the levels in kidney lysate samples from control mice. The data in FIG. 3 also show, e.g., that the levels of PCNA, cyclin D1, cyclin D3, MEK, and S6 are decreased in urinary exosomes from jck mice treated with a GCS inhibitor as compared to the levels in urinary exosomes from control mice."}, "jck mice [2]": {"test_system": "jck mice", "assay": "Immunoblot of marker levels in urinary exosomes of jck mice treated with GCS inhibitor", "type": "in vivo, mouse", "details": "jck mice treated continuously for 5 weeks (0.225% in diet), vs control mice, FIG. 3", "experimental": "as §1\n(§4) Exosomes were isolated from pooled urine samples (animal studies) or mid void urine samples (human samples) by ultracentrifugation at 100,000 g for 2 hours. Following ultracentrifugation, the exosome pellet was resuspended in 2.5× Laemmli Buffer (5×: 15% SDS, 0.575 M sucrose, 0.325 M Tris, pH 6.8, 5% beta-mercapto ethanol, and 0.002% bromophenol blue) for sodium dodecyl sulfate-polyacrylamide gel electrophoresis (SDS-PAGE) and immunoblot analysis.\nas §2\nas §3, with “The data in FIG. 3 also show, e.g., that the levels of PCNA, cyclin D1, cyclin D3, MEK, and S6 are decreased in urinary exosomes from jck mice treated with a GCS inhibitor as compared to the levels in urinary exosomes from control mice.” left out"}, "pcy mice [3]": {"test_system": "pcy mice", "assay": "Immunoblot of marker levels in kidney lysate of pcy mice treated with GCS inhibitor", "type": "in vivo, mouse", "details": "pcy mice treated for thirty weeks (0.225% in diet), vs untreated mice, FIG. 4", "experimental": "as §1, §2\nA further set of experiments was performed to validate the use of the markers described herein for both diagnosing and determining the efficacy of treatment in human patients having PKD. In these experiments, another mouse model of PKD, pcy mice were used. The pcy mouse model is a slowly progressive adult form of PKD characterized by cyst formation and fibrosis. […] In these experiments, pcy mice were left untreated or were treated with GCS inhibitor C9 for thirty weeks, and then the expression levels of the markers described herein were determined in both kidney lysate and urine exosome samples. The data from these experiments show the levels of the markers were decreased in both the kidney lysate samples and the urine exosome samples from pcy mice treated with GCS inhibitor C9 as compared to the corresponding levels in the untreated mice (FIG. 4). […] The data in FIG. 4 also show, for example, that the levels of PCNA, phosphorylated Erk, phosphorylated Akt, and S6 are decreased in urinary exosomes from pcy mice treated with GCS inhibitor C9 as compared to the untreated mice."}, "pcy mice [4]": {"test_system": "pcy mice", "assay": "Immunoblot of marker levels in urinary exosomes of pcy mice treated with GCS inhibitor", "type": "in vivo, mouse", "details": "pcy mice treated for thirty weeks (0.225% in diet), vs untreated mice, FIG. 4", "experimental": "as §1, §4\nKidney samples were homogenized on ice in radioimmunoprecipitation assay (RIPA) buffer (Boston BioProducts, Ashland, Mass.) containing 1 mM dithiothreitol, 5 mM ethylenediaminetetraacetic acid (EDTA), 2 mM NaF, 1 mM Na3VO4 (all supplied by Sigma-Aldrich, St. Louis, Mo.), Pefabloc SC and Complete protease inhibitor cocktail (both from Roche, Basel, Switzerland). Protein concentration was determined by BCA protein assay (Pierce, Rockford, Ill.). The samples were loaded onto 4-12% NuPage Bis-Tris gels following the manufacturer's protocols (Invitrogen, Grand Island, N.Y.). Electrophoretic transfer of the proteins in the gel onto nitrocellulose was performed in a semi-dry apparatus according to the manufacturer's instructions (Invitrogen). After electrophoretic transfer, the resulting membranes were blocked with 5% non-fat milk in tris-buffered saline (TBS) containing 0.1% Tween-20 and incubated with primary antibodies overnight at 4° C. The primary antibodies were detected with horseradish peroxidase-labeled secondary antibodies at a 1:10,000 dilution (Promega, Fitchburg, Wis.). […]\nA further set of experiments was performed to validate the use of the markers described herein for both diagnosing and determining the efficacy of treatment in human patients having PKD. […] In these experiments, pcy mice were left untreated or were treated with GCS inhibitor C9 for thirty weeks, and then the expression levels of the markers described herein were determined in both kidney lysate and urine exosome samples. […]"}, "pcy mice [5]": {"test_system": "pcy mice", "details": "Natoli et al., Nature Medicine 16:788-792, 2010; cited from earlier work"}}, "data": [{"smiles": "CCCCCCCCC(=O)N[C@H](CN1CCCC1)[C@H](O)c1ccc2c(c1)OCCO2", "note": "[GCS inhibitor C9]", "values": [{"measurement": "level of Akt", "setting": "jck mice [1]", "result": "decreased"}, {"measurement": "level of Erk", "setting": "jck mice [1]", "result": "decreased"}, {"measurement": "level of MEK", "setting": "jck mice [1]", "result": "decreased"}, {"measurement": "level of PCNA", "setting": "jck mice [1]", "result": "decreased"}, {"measurement": "level of RBBP", "setting": "jck mice [1]", "result": "decreased"}, {"measurement": "level of S6", "setting": "jck mice [1]", "result": "decreased"}, {"measurement": "level of caspase-2", "setting": "jck mice [1]", "result": "decreased"}, {"measurement": "level of cyclin D3", "setting": "jck mice [1]", "result": "decreased"}, {"measurement": "level of phosphorylated Akt", "setting": "jck mice [1]", "result": "decreased"}, {"measurement": "level of phosphorylated ERK", "setting": "jck mice [1]", "result": "decreased"}, {"measurement": "level of phosphorylated S6", "setting": "jck mice [1]", "result": "decreased"}, {"measurement": "level of MEK", "setting": "jck mice [2]", "result": "decreased"}, {"measurement": "level of PCNA", "setting": "jck mice [2]", "result": "decreased"}, {"measurement": "level of S6", "setting": "jck mice [2]", "result": "decreased"}, {"measurement": "level of cyclin D1", "setting": "jck mice [2]", "result": "decreased"}, {"measurement": "level of cyclin D3", "setting": "jck mice [2]", "result": "decreased"}, {"measurement": "level of PCNA", "setting": "pcy mice [3]", "result": "decreased"}, {"measurement": "level of S6", "setting": "pcy mice [3]", "result": "decreased"}, {"measurement": "level of phosphorylated Akt", "setting": "pcy mice [3]", "result": "decreased"}, {"measurement": "level of phosphorylated Erk", "setting": "pcy mice [3]", "result": "decreased"}, {"measurement": "level of phosphorylated S6", "setting": "pcy mice [3]", "result": "decreased"}, {"measurement": "level of PCNA", "setting": "pcy mice [4]", "result": "decreased"}, {"measurement": "level of S6", "setting": "pcy mice [4]", "result": "decreased"}, {"measurement": "level of phosphorylated Akt", "setting": "pcy mice [4]", "result": "decreased"}, {"measurement": "level of phosphorylated Erk", "setting": "pcy mice [4]", "result": "decreased"}, {"measurement": "cystogenesis", "setting": "pcy mice [5]", "result": "effective inhibition"}, {"measurement": "fibrogenesis", "setting": "pcy mice [5]", "result": "effective inhibition"}]}]}
